According to patent publication US20070087978A1, “Method of Controlling Animal Pests” (priority 1999, published 2007):

Key:
Erwinia Amylovora = experiment: KT-19827 compared with an SAR on pear with Erwinia; type: in vivo
Description: Systemic Activator Resistance (SAR) materials affect the treated plant so it resists outbreaks of disease over longer periods of time. KT-19827 was compared with a leading commercial SAR called Bion or Actiguard (Acibenszolar-S-Methyl by Novaritis) against Erwinia Amylovora on pear trees, variety “Butirra”. The test was for the full growing season. Efficacy against Erwinia on the trees and fruit was 98% for […], 73.6% for Bion and zero on the untreated control pear trees. Standard label rates for each product were applied as a foliar spray in an equal manner.
The study was not designed to measure the comparative quantity of pears produced on the three plots.

white flies = experiment: Control of white flies on poinsettia; type: in vivo
Description: It was compared to untreated plants or plants treated with the commercial insecticides Bifenthrin, Neem Oil or Acephate.

Erwinia (Fireblight) = conditions: in vivo
Description: A series of foliar sprays was applied before, during and after bloom and later in the season as needed. […] This unexpected, unusual multiple benefit indicates a phytotherapeutic defense wherein the copper molecule, it is believed, is rendered metabolizable by the plant, thereby enhancing its own defense characteristics. The molecule of copper is rendered systemic so that its action is accomplished, most importantly, inside the treated plants. Thus a continuity of protection and a reinvigorating effect on the plant are assured, which is evidenced by the quantity and unblemished quality of the fruit.
In a replicated study with controls, 10 foliar sprays were applied between March and August at times most useful to control the disease in the course of the season's adverse weather variables which encourage Erwinia. By the time of harvest, the normal state of distress of the trees' photosynthetic activity with standard copper bactericides such as copper oxychloride or the classic Bordeau mixture was missing. The consequences of this physiology were very evident at the time of harvest quantitatively and qualitatively.

[1] = tested on: two spotted spider mite, Tetranychus urticae; experiment: Spider mite control on greenhouse-grown potted miniature roses; type: in vivo; conditions: rate 0.4 oz. per 10 gallons
Description: Mites are a serious pest of plants grown throughout the world. […] It was compared to untreated control plants or plants treated with the commercial miticide, Avermectin, (Avid) at 0.4 oz. Per 10 gallons. There were six replicate plants per treatment. Adult and nymph spider mites were counted on three areas of each plant (upper, middle, lower). The sum of these three measurements is presented.

[2] = tested on: nematode Aphielenchoides frageria; experiment: Nematode trial on Anemone vitfolia; type: in vivo; conditions: repeated measure ANOVA and Kruskal-Wallis ANOVA
Description: In another trial, no control of the nematode Aphielenchoides […] on Anemone vitfolia was found as to nematode count when measured by repeated measure analysis of variance (ANOVA) and non-[…] for either KT-19827 or Avermectin. […] The symptomatic leaf analysis was done at the end of the 12 week trial period, during which 6 sprays were applied at 2 week intervals. ANOVA was the analytical measurement methodology.

Spider Mite = type: in vivo; conditions: 0.4 ounces per 10 gallons
Description: Another experiment was conducted on Marigolds in 6-inch pots. […] It was compared to untreated controls, the commercial miticide Avermectin (Avid, Merck) at 0.4 ounces per 10 gallons, and the commercial Neem-based insecticide Triact 90 at 10.0 mL per liter. There were 6 replications. Plant samples of 5 leaves were taken randomly from upper to lower plant areas.

[3] = tested on: silverleaf whitefly, Bemista argentifolii; type: in vivo; conditions: 3 days after treatment, rate 2.5 oz/10 gal. water
Description: In another study, twenty poinsettia plants were planted into 6.0 inch containers and were grown in a greenhouse and arranged in a completely randomized design (CRD). […] Plants were sampled before (precount) and 3 days after treatment (DAT) by randomly harvesting 10 leaves from each plant and then counting the number of live and dead whitefly nymphs.
All data were analyzed in a completely randomized design using a two-way analysis of variance (ANOVA) for the number of live whitefly nymphs and percent mortality 3 days after treatment. Percent mortality was determined by dividing the number of dead whiteflies by the total number of whiteflies (alive and dead).

CSC(=O)c1cccc2nnsc12 [Bion, Acibenszolar-S-Methyl] was tested, and the “packets of harvested pears showing evidence of disease” value (Erwinia Amylovora; at harvest) was 17 out of 238 and the “Efficacy against Erwinia on the trees and fruit” value (Erwinia Amylovora; pear variety Butirra, full growing season, standard label rates, foliar spray) was 73.6%.
For Cc1c(COC(=O)[C@@H]2[C@H](/C=C(\Cl)C(F)(F)F)C2(C)C)cccc1-c1ccccc1 (racemic) [Befenthria, Bifenthrin], the “Mean Number of White Flies” value (white flies; 6 Days After Treatment, rate 0.1) was 27.7 living whitefly immatures per leaf and the “Mean Number of White Flies” value (white flies; 10 Days After Treatment, rate 0.1) was 8.7 living whitefly immatures per leaf.
With “tannate complex of picro cupric ammonium formate [KT-19827]” the “damage to tender tissue (blooms)” value (Erwinia (Fireblight)) was “without damage to tender blooms”.
For CC[C@H](C)[C@H]1O[C@]2(C=C[C@@H]1C)C[C@@H]1C[C@@H](C/C=C(\C)[C@@H](O[C@H]3C[C@H](OC)[C@@H](O[C@H]4C[C@H](OC)[C@@H](O)[C@H](C)O4)[C@H](C)O3)[C@@H](C)/C=C/C=C3\CO[C@@H]4[C@H](O)C(C)=C[C@@H](C(=O)O1)[C@]34O)O2 [Avermectin], the “Mean Number of White Flies” value (white flies; 6 Days After Treatment, rate 0.5) was 26.8 living whitefly immatures per leaf, the “Mean Number of White Flies” value (white flies; 10 Days After Treatment, rate 0.5) was 44.5 living whitefly immatures per leaf and the “Mean Number of Adult and Nymph Mites” value ([1]; 6 Days After Treatment, sum of upper, middle, lower plant areas) was 0b. The “Mean Number of Adult and Nymph Mites” value ([1]; 10 Days After Treatment) was 0.2b, the “Mean Number of Adult and Nymph Mites” value ([1]; 16 Days After Treatment) was 0.7b and the “control as to nematode count” value [2] was “no control”. For the same compound, the “mite population, Week 2” value (Spider Mite) was 6.2c, the “mite population, Week 3” value (Spider Mite) was 23.8c and the “mite population, Week 1” value (Spider Mite; samples of 5 leaves) was 0.0b.
With CCOP(=S)(OCC)Oc1nc(Cl)c(Cl)cc1Cl [Chlorpyrifos, chlorpyrifos] the “Live Whitefly Nymphs (3 DAT)” value [3] was 143.0bc and the “% Mortality” value ([3]; dead / total whiteflies) was 34.0ab %.
